This is an account of results in PubChem BioAssay AID652232 (The Scripps Research Institute Molecular Screening Center, 2013).

Structures are written as SMILES. The source made the active and inactive calls.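 How the source made its calls: active means blocks protein phosphatase 1 activity with an IC50 half-maximal inhibitory concentration below 10 µM; inactive means IC50 of 10 µM or higher.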

Chain of Serine/threonine-protein phosphatase PP1-alpha catalytic subunit (Homo sapiens) (P62136 whole entry, looked up): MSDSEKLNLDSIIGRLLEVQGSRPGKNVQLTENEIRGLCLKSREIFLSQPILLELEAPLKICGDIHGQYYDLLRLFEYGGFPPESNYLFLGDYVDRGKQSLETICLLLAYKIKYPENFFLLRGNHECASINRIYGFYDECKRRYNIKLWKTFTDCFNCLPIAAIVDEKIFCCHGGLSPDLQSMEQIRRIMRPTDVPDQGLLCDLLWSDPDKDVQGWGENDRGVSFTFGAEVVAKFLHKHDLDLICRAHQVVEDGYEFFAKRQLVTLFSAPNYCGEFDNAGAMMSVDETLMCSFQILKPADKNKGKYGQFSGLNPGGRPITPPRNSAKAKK

This test has as its target Serine/threonine-protein phosphatase PP1-alpha catalytic subunit (Homo sapiens) (UniProt P62136). In words: PP1 phosphohistone dephosphorylation inhibitor potency, late-stage follow-up, biochemical, radiolabel, dose response, powder samples (AID 652232). The conditions noted are these: purified PP1alpha, 33P-phosphohistone dephosphorylation, scintillation.
Regarding `CC1CCN(C(c2ccccn2)c2cc(Cl)c3cccnc3c2O)CC1` (centres undefined), the IC50 (usually the concentration that inhibits the measured activity by half) is “inactive”.

`CC(C)(C)OC(=O)N1CCN(C(c2ccccn2)c2cc(Cl)c3cccnc3c2O)CC1` (centres undefined) showed an IC50 of 44.2 µM.

In turn, `Oc1c(C(c2ccccn2)N2CCC(Cc3ccccc3)CC2)cc(Cl)c2cccnc12` (centres undefined) came in with a concentration for half-maximal inhibition (IC50) of 27 µM.

Regarding `Oc1c(C(c2ccccn2)N2CCN(c3ccccc3F)CC2)cc(Cl)c2cccnc12` (centres undefined), the IC50 result was “inactive”.
